Literature values, collected in article PMC8679839, “Interleukin‐2‐inducible T‐cell kinase (Itk) signaling regulates potent noncanonical regulatory T cells” (Clinical and Translational Medicine, 2021).

Test system: Tregs
Description: Tregs are critical for the maintenance of tolerance, and transfer of Treg cells can ameliorate GVHD by restoring defective tolerance mechanisms.[41] One of the biggest challenges is to isolate functional Tregs in large numbers for immunotherapy.[42] This challenge is due to the low number of Tregs in peripheral blood.[4] Given their low numbers in the blood, it is difficult to obtain enough Tregs in the clinic for use as a therapy. If the number of collected canTregs and ncTregs could be increased for use in GVHD patients, such patients could be better protected from GVHD and other autoimmune ...

In the case of `CO[C@H]1C[C@@H]2CC[C@@H](C)[C@@](O)(O2)C(=O)C(=O)N2CCCC[C@H]2C(=O)O[C@H]([C@H](C)C[C@@H]2CC[C@@H](O)[C@H](OC)C2)CC(=O)[C@H](C)/C=C(\C)[C@@H](O)[C@@H](OC)C(=O)[C@H](C)C[C@H](C)/C=C/C=C/C=C/1C` [rapamycin], the “Treg number after in vitro expansion” value is listed as “increases Tregs” and the “Treg suppressive function after in vitro expansion” value is listed as “reduces suppressive function”.
